Data taken from ChEMBL document CHEMBL3580595, “Design, synthesis and biological evaluation of novel trimethylpyrazine-2-carbonyloxy-cinnamic acids as potent cardiovascular agents” (Medchemcomm, 2014).
pEC50, pIC50: −log10 of the molar value.

What was measured:
[1] = Cytoprotective activity against H2O2-induced cytotoxicity in human EAhy926 cells at 100 uM pre-incubated for 24 hrs before H2O2 challenge for 12 hrs by MTT assay; format: functional, EA.hy 926
[2] = Cytoprotective activity against H2O2-induced cytotoxicity in human EAhy926 cells at 50 uM pre-incubated for 24 hrs before H2O2 challenge for 12 hrs by MTT assay; format: functional, EA.hy 926
[3] = Cytoprotective activity against H2O2-induced cytotoxicity in human EAhy926 cells at 12.5 uM pre-incubated for 24 hrs before H2O2 challenge for 12 hrs by MTT assay; format: functional, EA.hy 926
[4] = Cytoprotective activity against H2O2-induced cytotoxicity in human EAhy926 cells at 25 uM pre-incubated for 24 hrs before H2O2 challenge for 12 hrs by MTT assay; format: functional, EA.hy 926
[5] = Cytoprotective activity against H2O2-induced cytotoxicity in human EAhy926 cells pre-incubated for 24 hrs before H2O2 challenge for 12 hrs by MTT assay; format: functional, cell-based; details: EA.hy 926
[6] = Anti-platelet activity in rabbit platelet-rich plasma assessed as inhibition of ADP-induced platelet aggregation at 50 uM incubated for 5 mins at 37 degC by aggregometry; format: functional; details: Oryctolagus cuniculus
[7] = Anti-platelet activity in rabbit platelet-rich plasma assessed as inhibition of ADP-induced platelet aggregation at 25 uM incubated for 5 mins at 37 degC by aggregometry; format: functional; details: Oryctolagus cuniculus
[8] = Anti-platelet activity in rabbit platelet-rich plasma assessed as inhibition of ADP-induced platelet aggregation incubated for 5 mins at 37 degC by aggregometry; format: functional; details: Oryctolagus cuniculus
[9] = Anti-platelet activity in rabbit platelet-rich plasma assessed as inhibition of ADP-induced platelet aggregation at 12.5 uM incubated for 5 mins at 37 degC by aggregometry; format: functional; details: Oryctolagus cuniculus
[10] = Anti-platelet activity in rabbit platelet-rich plasma assessed as inhibition of ADP-induced platelet aggregation at 100 uM incubated for 5 mins at 37 degC by aggregometry; format: functional; details: Oryctolagus cuniculus

| SMILES | Activity [1] | Activity [2] | Activity [3] | Activity [4] | pEC50 [5] | inhibition at 50 µM [6] | inhibition at 25 µM [7] | pIC50 [8] | inhibition at 12.5 µM [9] | inhibition at 100 µM [10] |
| --- | --- | --- | --- | --- | --- | --- | --- | --- | --- | --- |
| COc1ccc(/C=C/C(=O)O)cc1O [ISOFERULIC ACID] | 81.9% | 62.9% | 34.9% | 36.8% | 4.53 |  |  |  |  |  |
| O=C(O)/C=C/c1ccc(O)c(O)c1 [CAFFEIC ACID] | 155.6% | 149.5% | 16.7% | 108.5% | 4.90 |  |  |  |  |  |
| CCOC(=O)/C=C/c1cc(Cl)ccc1OC(=O)c1nc(C)c(C)nc1C | 11% | 33.7% | 64.9% | 62.5% | 4.44 | 44.4% | 36.9% | 4.17 | 26.3% | 61.7% |
| CCOC(=O)/C=C/c1ccccc1OC(=O)c1nc(C)c(C)nc1C | 40.9% | 36.9% | 9.6% | 17.8% | 3.96 | 39% | 16.6% | 3.96 | 11.8% | 42.4% |
| CCOC(=O)/C=C/c1ccc(O)cc1 [ETHYL P-COUMARATE] |  |  |  |  |  | 25.5% | 16.4% | 3.88 | 5.8% | 37.9% |
| O=C(O)/C=C/c1ccc(Cn2ccnc2)cc1 [OZAGREL] |  |  |  |  |  | 25% | 4.8% | 3.84 | 6.4% | 36.8% |
| Cc1nc(C)c(C(=O)Oc2ccc(/C=C/C(=O)O)cc2O)nc1C | 601.4% | 284.8% | 92.8% | 271.1% | 5.66 | 44.5% | 25% | 4.07 | 32.1% | 53.6% |
| COc1cc(/C=C/C(=O)O)cc(OC)c1OC(=O)c1nc(C)c(C)nc1C | 163% | 96.6% | 5.7% | 24% | 4.46 | 51.2% | 17.4% | 4.08 | 12% | 52.1% |
| O=C(O)/C=C/c1ccc(O)cc1 [COUMARIC ACID] |  |  |  |  |  | 53.2% | 29.9% | 4.13 | 17.2% | 54.5% |
| CCOC(=O)/C=C/c1ccc(O)c(O)c1 [ETHYL CAFFEATE] | 146.9% | 134.8% | 80.4% | 88.4% | 4.94 |  |  |  |  |  |
| CCOC(=O)/C=C/c1ccc(OC)c(OC(=O)c2nc(C)c(C)nc2C)c1 | 117% | 89% | 26.4% | 60.1% | 4.52 | 32.2% | 20.6% | 3.84 | 22.3% | 39.7% |
| COC(=O)[C@H](c1ccccc1Cl)N1CCc2sccc2C1 [CLOPIDOGREL] |  |  |  |  |  | 92.3% | 77.6% | 5.12 | 86.9% | 94.5% |
| Cc1nc(C)c(C(=O)Oc2ccccc2/C=C/C(=O)O)nc1C | 80.1% | 64.9% | 45.7% | 61.8% | 4.44 | 53.8% | 54.8% | 5.02 | 32.9% | 17.2% |
| COc1cc(/C=C/C(=O)O)ccc1OC(=O)c1nc(C)c(C)nc1C | 55.4% | 49.1% | 38.7% | 40.3% | 4.16 | 46.2% | 22.8% | 4.35 | 60.6% | 73.2% |
| CCOC(=O)/C=C/c1cc(OC)c(OC(=O)c2nc(C)c(C)nc2C)c(OC)c1 | -47% | -13.6% | 96.6% | 20.9% | 4.67 | 55.9% | 47.2% | 4.43 | 44% | 59.5% |
| CCOC(=O)/C=C/c1cccc(OC(=O)c2nc(C)c(C)nc2C)c1 | 47% | 39.5% | 27.9% | 34.2% | 4.03 | 59.6% | 62.2% | 4.45 | 25.1% | 69.4% |
| Cc1nc(C)c(C)nc1C [LIGUSTRAZINE] | 40.9% | 22.1% | 11.4% | 13.6% | 4.08 | 15.3% | 8.6% | 3.58 | 3.4% | 19.6% |
| O=C(O)CCCCC1CCSS1 (stereo not drawn) [LIPOIC ACID, ALPHA] | 58.1% | 48.7% | 30.5% | -12.3% | 4.17 |  |  |  |  |  |
| CCOC(=O)/C=C/c1ccc(O)c(OC)c1 [ETHYL FERULATE] |  |  |  |  |  | 17.9% | 11.5% | 3.71 | 4% | 26.5% |
| Cc1nc(C)c(C(=O)Oc2ccc(/C=C/C(=O)O)cc2)nc1C | 93.2% | 74.1% | 34.2% | 46.6% | 4.42 | 41.7% | 53.3% | 4.42 | 64.3% | 25.3% |
| COc1ccc(OC(=O)c2nc(C)c(C)nc2C)c(/C=C/C(=O)O)c1 | 79.2% | 62.9% | 21.7% | 45% | 4.31 | 48.8% | 46.5% | 4.31 | 43.4% | 59.8% |
| CCOC(=O)/C=C/c1cc(OC)ccc1OC(=O)c1nc(C)c(C)nc1C | 46.2% | 27.8% | 15.9% | 23.4% | 3.98 | 72.9% | 73.9% | 3.71 | 70.5% | 60.7% |
| Cc1nc(C)c(C(=O)Oc2cccc(/C=C/C(=O)O)c2)nc1C | 103% | 75.3% | 61.6% | 64.3% | 4.62 | 28% | 38.5% | 4.58 | 73.4% | 8.2% |
| CCOC(=O)/C=C/c1ccc(OC(=O)c2nc(C)c(C)nc2C)cc1 | 96.1% | 62.6% | 42.7% | 58.8% | 4.46 | 32.2% | 39.1% | 4.61 | 68% | 20.5% |
| O=C(O)/C=C/c1ccccc1O [O-COUMARIC ACID] |  |  |  |  |  | 30.5% | 21.4% | 3.94 | 10.8% | 42.9% |
| COc1ccc(/C=C/C(=O)O)c(OC(=O)c2nc(C)c(C)nc2C)c1 | 18% | 31.6% | 39.7% | -52.1% | 3.94 | 34.1% | 35.1% | 3.87 | 16.5% | 40.9% |
| CCOC(=O)/C=C/c1cc(OC)c(O)c(OC)c1 | 69.1% | 32% | 4.9% | 24.9% | 4.17 |  |  |  |  |  |
| CCOC(=O)/C=C/c1ccc(OC(=O)c2nc(C)c(C)nc2C)c(OC)c1 | 71.6% | 69.7% | 52.4% | 53.3% | 4.41 | 49.9% | 37.2% | 4.23 | 31% | 64.4% |
| CCOC(=O)/C=C/c1ccc(OC)cc1OC(=O)c1nc(C)c(C)nc1C | 39.9% | 20.7% | -57.6% | 16.9% | 3.86 | 18.7% | 32.6% | 4.55 | 84.2% | 47% |
| COc1ccc(/C=C/C(=O)O)cc1OC(=O)c1nc(C)c(C)nc1C | 216.3% | 159.6% | 41.3% | 128.1% | 5.06 | 59.8% | 53.5% | 4.38 | 21.6% | 75.2% |
